Where “and” joins values, the source holds several entries; their conditions need not be identical. Identical values can stand only once. Entries after “also recorded” stand apart in the source; their conditions may differ. Like-named read-outs stand apart in the source and are kept apart here.
Legend:
M. tuberculosis H37Rv [1] = assay: M. tuberculosis H37Rv inhibition assays (MIC); format: cell-based, Mycobacterium tuberculosis; details: for MIC: M. tuberculosis H37Rv
mtFabH [2] = target: T1, mtFabH (Mycobacterium tuberculosis, UniProt P9WNG3); assay: mtFabH inhibition assay; format: biochemical
T1 sequence (P9WNG3 2-335): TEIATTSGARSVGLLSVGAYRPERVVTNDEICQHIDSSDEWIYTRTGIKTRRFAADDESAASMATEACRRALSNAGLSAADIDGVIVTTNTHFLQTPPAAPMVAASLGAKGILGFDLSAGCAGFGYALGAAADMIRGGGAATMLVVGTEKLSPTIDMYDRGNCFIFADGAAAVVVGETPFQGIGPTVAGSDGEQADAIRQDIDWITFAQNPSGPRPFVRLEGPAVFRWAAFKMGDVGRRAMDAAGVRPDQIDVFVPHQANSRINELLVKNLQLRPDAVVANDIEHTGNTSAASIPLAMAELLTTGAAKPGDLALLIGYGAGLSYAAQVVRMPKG

mtFabH [3] = target: T1, mtFabH; details: cited from earlier work
[4] = mouse model; no reference given; cited from earlier work
M. tuberculosis H37Rv [5] = details: cited from earlier work
FAS-I = FAS-I assay; format: biochemical
Experimental: (§1) The molecules under investigation were designed to inhibit mtFabH in the mycobacterial FAS-II system, with selectivity over the related mammalian FAS-I system. To examine selectivity, the compounds were assessed using the procedures of Brown et al. and Slayden et al..
FAS-I and FAS-II experiments were conducted as per Slayden et al. (1996) using the 40–80% ammonium sulphate fraction. The standard reaction mixture for the incorporation of radioactivity from [2-^14C]malonyl-CoA into C16 to C24 fatty acids catalysed by FAS-I was composed as follows: 100 mM Tris.HCl pH 7.9, 5 mM EDTA, 5 mM dithiothreitol, 300 µM acetyl-CoA, 100 µM NADPH, 100 µM NADH, 1 µM flavin mononucleotide, 500 µM α-cyclodextrin, 300 µM CoA-SH, 100,000 cpm of [2-^14C] malonyl-CoA (specific activity 53 Ci/mol), test compound (0.5–200 µg/ml) and 2 mg of cytosolic enzyme preparation in a total volume of 500 µl. Similarly, the standard reaction mixture for incorporation of radioactivity from [2-^14C]malonyl-CoA into C24 to C30 fatty acids catalysed by FAS-II contained the following: 100 mM potassium phosphate buffer (pH 7.0), 5 mM EDTA, 5 mM dithiothreitol, 10 µM palmitoyl-CoA, 140 µM NADPH, 140 µM NADH, 100 µg of AcpM, 40 µM malonyl-CoA, 200,000 cpm of [2-^14C]malonyl-CoA (specific activity 53 Ci/mol), test compound (0.5–200 µg/ml) and 200 mg of cytosolic enzyme preparation in a total volume of 250 µl. […]

FAS-II = FAS-II assay; format: biochemical
Experimental: as §1
FAS-I and FAS-II experiments were conducted as per Slayden et al. (1996) using the 40–80% ammonium sulphate fraction. The standard reaction mixture for the incorporation of radioactivity from [2-^14C]malonyl-CoA into C16 to C24 fatty acids catalysed by FAS-I was composed as follows: 100 mM Tris.HCl pH 7.9, 5 mM EDTA, 5 mM dithiothreitol, 300 µM acetyl-CoA, 100 µM NADPH, 100 µM NADH, 1 µM flavin mononucleotide, 500 µM α-cyclodextrin, 300 µM CoA-SH, 100,000 cpm of [2-^14C] malonyl-CoA (specific activity 53 Ci/mol), test compound (0.5–200 µg/ml) and 2 mg of cytosolic enzyme preparation in a total volume of 500 µl. Similarly, the standard reaction mixture for incorporation of radioactivity from [2-^14C]malonyl-CoA into C24 to C30 fatty acids catalysed by FAS-II contained the following: 100 mM potassium phosphate buffer (pH 7.0), 5 mM EDTA, 5 mM dithiothreitol, 10 µM palmitoyl-CoA, 140 µM NADPH, 140 µM NADH, 100 µg of AcpM, 40 µM malonyl-CoA, 200,000 cpm of [2-^14C]malonyl-CoA (specific activity 53 Ci/mol), test compound (0.5–200 µg/ml) and 200 mg of cytosolic enzyme preparation in a total volume of 250 µl. In both the FAS-I and FAS-II assays, reactions were performed in triplicate at 37°C for 30 min and terminated by the addition of 250 µl of 20% potassium hydroxide in 50% methanol at 100°C for 45 min. Following acidification with 150 µl of 6 M HCl, the resultant ^14C-labelled fatty acids were extracted three times with petroleum ether. The organic extracts were pooled, washed once with an equal volume of water, and dried in a scintillation vial prior to counting.

[6] = no reference given; cited from earlier work
[7] = Mycobacterium tuberculosis, N/A = no inhibition observed at 200 µg/ml, read-out: TB MIC (class N/A)
[8] = N/A = no inhibition observed at 200 µg/ml, read-out: mtFabH IC50 (class N/A)
[9] = read-out: mtFabH IC50 (converted)
[10] = Mycobacterium tuberculosis, read-out: TB MIC

| Compound | inhibition of M. tuberculosis H37Rv (in words) (M. tuberculosis H37Rv [1]) | MIC (M. tuberculosis H37Rv [1]; [7]) [µg/mL] | IC50 (mtFabH [2]; [8]) [µM] | melting point [°C] | inhibition of mtFabH (in words) (mtFabH [2]) | also measured |
| --- | --- | --- | --- | --- | --- | --- |
| Nc1nc(C(=O)O)c(-c2ccccc2)s1 [Compound 10, 2-amino-5-phenylthiazole-4-carboxylic acid] | inactive | > 200 | > 908 | 242 to 243 | – | – |
| CC1=C(O)C(C)(Cc2ccc(-c3ccc(C(=O)O)cc3)cc2)SC1=O (centres unmarked) [Compound 4] | – | – | – | – | – | IC50 (mtFabH [3]): 3.1 µM and 3 µM |
| O=C(CBr)Nc1nc(C(=O)O)c(-c2cccc(Cl)c2)s1 [Compound 18, 2-(2-Bromoacetamido)-5-(3-chlorophenyl)thiazole-4-carboxylic acid] | – | > 200 | > 532 | 228 to 230 | failed to inhibit; also recorded: inactive | – |
| C=C/C(C)=C/[C@@]1(C)SC(=O)C(C)=C1O [1 (TLM), thiolactomycin] | – | – | – | – | – | oral availability [4]: orally available; toxicity [4]: non-toxic; MIC (M. tuberculosis H37Rv [5]; listed as TLM): 13 µg/ml and 62.5 µM |
| COC(=O)c1nc(N)sc1-c1cccc(Cl)c1 [Compound 8, Methyl 2-amino-5-(3-chlorophenyl)thiazole-4-carboxylate] | inactive | > 200 | > 744 | 229 to 232 | – | – |
| O=C(CBr)Nc1nc(C(=O)O)c(Cc2ccccc2)s1 [Compound 19, 5-Benzyl-2-(2-bromoacetamido)thiazole-4-carboxylic acid] | – | > 200 | – | 220 to 222 | – | inhibition of FAS-I (in words) (FAS-I): inhibited both FAS-I and FAS-II; inhibition of FAS-II (in words) (FAS-II): inhibited both FAS-I and FAS-II; IC50 (mtFabH [2]; [9]): 633 µM and 718 µM |
| COC(=O)c1nc(NC(=O)CBr)sc1-c1ccccc1 [Compound 14, Methyl 2-(2-bromoacetamido)-5-phenylthiazole-4-carboxylate] | – | > 200 | – | 218 to 220 | active against mtFabH | inhibition of FAS-II (in words) (FAS-II): selective against FAS-II; IC50 (mtFabH [2]; [9]): 3.1 µM and 3.22 µM |
| COC(=O)c1nc(NC(=O)CBr)sc1Cc1ccccc1 [Compound 15, Methyl 5-benzyl-2-(2-bromoacetamido)thiazole-4-carboxylate] | – | > 200 | – | 218 to 220 | – | inhibition of FAS-I (in words) (FAS-I): failed to inhibit the FAS enzymes; inhibition of FAS-II (in words) (FAS-II): failed to inhibit the FAS enzymes; IC50 (mtFabH [2]; [9]): 160 µM |
| COC(=O)c1nc(N)sc1Cc1ccccc1 [Compound 2, methyl 2-amino-5-benzylthiazole-4-carboxylate] | – | – | > 805 | – | no activity | MIC (M. tuberculosis H37Rv [1]; read-out: TB MIC): 0.24 µM; MIC (M. tuberculosis H37Rv [1]; [10]): 0.06 µg/mL and 0.24 µM |
| COC(=O)c1nc(NC(=O)CBr)sc1-c1cccc(Cl)c1 [Compound 3, methyl 2-(2-bromoacetamido)-5-(3-chlorophenyl)thiazole-4-carboxylate] | not active | > 200 | – | – | active against mtFabH | inhibition of FAS-II (in words) (FAS-II): selective against FAS-II; IC50 (mtFabH [2]; [9]): 2.44 µM and 2.43 µM |
| Nc1nc(C(=O)O)c(Cc2ccccc2)s1 [Compound 12, 2-amino-5-benzylthiazole-4-carboxylic acid] | inactive | > 200 | > 854 | 300 to 302 | – | – |
| Cc1sc(NC(=O)CBr)nc1C(=O)O [Compound 16, 2-(2-Bromoacetamido)-5-methylthiazole-4-carboxylic acid] | – | > 200 | > 717 | 218 to 220 | failed to inhibit | – |
| O=C(CBr)Nc1nc(C(=O)O)c(-c2ccccc2)s1 [Compound 17, 2-(2-Bromoacetamido)-5-phenylthiazole-4-carboxylic acid] | – | > 200 | > 586 | 208 to 210 | failed to inhibit | – |
| COC(=O)c1nc(NC(=O)CBr)sc1C [Compound 13, Methyl 2-(2-bromoacetamido)-5-methylthiazole-4-carboxylate] | – | > 200 | > 682 | 220 to 222 | fails to inhibit | – |
| NNC(=O)c1ccncc1 [INH, isoniazid] | – | – | – | – | – | logP [6]: −1.1; MIC (M. tuberculosis H37Rv [5]): 0.25 µg/ml and 1.8 µM |
| COC(=O)c1nc(N)sc1-c1ccccc1 [Compound 7, Methyl 2-amino-5-phenylthiazole-4-carboxylate] | inactivity | > 200 | > 854 | 218 to 221 | – | – |
| Cc1sc(N)nc1C(=O)O [Compound 9, 2-amino-5-methylthiazole-4-carboxylic acid] | – | – | > 1260 | – | – | MIC (M. tuberculosis H37Rv [1]; [10]): 0.06 µg/mL and 0.35 µM |
| Nc1nc(C(=O)O)c(-c2cccc(Cl)c2)s1 [Compound 11, 2-amino-5-(3-chlorophenyl)thiazole-4-carboxylic acid] | active | – | > 785 | 242 to 244 | – | MIC (M. tuberculosis H37Rv [1]; [10]): 32 µg/mL and 125 µM |
| COC(=O)c1nc(N)sc1C [Compound 6, Methyl 2-amino-5-methylthiazole-4-carboxylate] | – | – | > 1160 | 165 to 168 | – | MIC (M. tuberculosis H37Rv [1]; [10]): 16 µg/mL and 93 µM |

From paper PMC2680598 (PLoS ONE, 2009)
